Results reported in patent publication US20240043386A1, “Modulators of the Cystic Fibrosis Transmembrane Conductance Regulator Protein and Methods of Use” (AbbVie Global Enterprises Ltd., priority 2021, published 2024).
Read-outs that look alike come from different tables or passages of the source.

Assays:
[1] = target: T1, F508del/F508del CFTR (Homo sapiens, UniProt P13569, DEL508-508); assay: Trans-Epithelial Current Clamp (TECC) assay using primary human bronchial epithelial cells; format: cell-based; conditions: for Emax (% Dual): maximum percent activity relative to positive control (co-corrector 0.15 μM + potentiator 0.45 μM = 100%), primary hBE cells F508del/F508del; for EC50: primary hBE cells homozygous F508del/F508del, test C2 corrector with co-corrector and potentiator, 18-24 hours at 37° C., equivalent CFTR current (IEQ)/AUC
T1 construct: cells isolated from CF patients with the homozygous mutation; endogenous in cells; host or cells: primary human bronchial epithelial (hBE) cells from CF patients homozygous for F508del
Text: A cell-based assay was developed using the primary human bronchial epithelial cells (hBE cells) with F508del/F508del CFTR and other mutations.
Primary human bronchial epithelial (hBE) cells from CFTR patients with homozygous F508del/F508del mutation were expanded from 1×10^6 to 250×10^6 cells (Neuberger, T et al., 2011, Methods Mol Biol 741:39-54). For this purpose, cells isolated from CF patients with the homozygous mutation, procured from the CF center tissue procurement and cell culture core at the Marsico Lung Institute at UNC (Randell), the Cystic Fibrosis translational research center at McGill University (University), and Rosalind Franklin University Medical School (RFUMS) were seeded onto 24 well Corning (Cat #3378) filter plates that were coated with 3T3 conditioned media and grown at an air-liquid interface for 35 days using an Ultroser® G supplemented differentiation media. All the primary human bronchial epithelial cells were collected in accordance with institutional review board approval protocols. Apical surface mucus was removed 72 hours before the experiment by incubating the apical surface of the cells for 30 minutes with 3 mM dithiothreitol (DTT) prepared in Dulbecco's phosphate buffered saline (DPBS) with Ca^2+ and Mg^2+. This was followed with aspiration of the mucus from the apical surface along with DPBS. The apical surface was re-washed with phosphate buffered saline (PBS) incubated for 30 minutes followed with aspiration. These hBE cells were then incubated with the desired concentrations of the test C2 corrector compounds along with co-corrector, 4-[(2R,4R)-4-({[1-(2,2-difluoro-1,3-benzodioxol-5-yl)cyclopropyl]carbonyl}amino)-7-(difluoromethoxy)-3,4-dihydro-2H-chromen-2-yl]benzoic acid and potentiator, (5-{3-amino-5-[4-(trifluoromethoxy)benzene-1-sulfonyl]pyridin-2-yl}-1,3,4-oxadiazol-2-yl)methanol, for 18-24 hours at 37° C., 5% CO2. The desired concentrations of the correctors and potentiator compounds were prepared from the 10 mM stocks in differentiation media and were always applied on the basolateral side of the epithelial cells. We also used an assay format where a fixed concentration of potentiator was added chronically along with the corrector compounds. This chronic treatment with the potentiator helped eliminate any interaction that might happen with CFTR modulators (correctors and potentiators) and thereby determined the true efficacy of the modulator combinations reflective of clinical relevance.
The assay uses a Transepithelial Current Clamp (TECC) (Vu, C B et al., 2017; J Med Chem 60:458-473) instrument that can measure the functionality of the mutated channel by measuring the equivalent CFTR current (IEQ) generated by the polarized primary epithelial cells. We used a TECC-24 with a 24-channel electrode manifold allowing for the simultaneous measurement of the transepithelial voltage, VT, and transepithelial resistance, RT, under current clamp conditions, from 24 filters using a 24 well Costar filter plate. The design of the filters in the 24 well filter plates was exactly the same as the design of an individual Transwell filter used in the classical Ussing Chamber with a surface area of 0.33 cm^2. Each measured VT values were corrected for the electrode offset potential measured using buffer alone in a separate plate, and each measured RT values were then corrected for the combined solution series and empty filter resistances. The corrected VT and RT values were then used to calculate the equivalent current, IEQ using Ohm's law (IEQ=VT/RT). The area under the curve (AUC) for the time period between the forskolin peak IEQ response and at the time of bumetanide addition was also calculated using a one-third trapezoid method, in addition to calculating the IEQ. The assay was run in a 24-well format and all 24-wells were measured at the same time point giving a higher throughput for this assay. […]

[2] = target: T2, F508delCFTR (Homo sapiens, UniProt P13569, DEL508-508); assay: Cell Surface Expression-Horse Radish Peroxidase (CSE-HRP) assay in CFBE41o-F508delCFTR-HRP cells; format: cell-based; conditions: for EC50: CFBE41o-F508delCFTR-HRP cells, 18-24 hours at 33° C., luminescence; for Maximum % activity (with co-corrector) / Maximum % activity (without co-corrector): normalized to on-plate positive control corrector (2 μM)
T2 construct: expressed in transfected cells; host or cells: CFBE41o- human lung-derived epithelial cell line, doxycycline-inducible expression
Procedure: A cellular assay for measuring the F508delCFTR cell surface expression after correction with test compounds either without or with a co-corrector (2 μM of 3-[(2R,4R)-4-({[1-(2,2-difluoro-1,3-benzodioxol-5-yl)cyclopropyl]carbonyl}amino)-7-methoxy-3,4-dihydro-2H-chromen-2-yl]benzoic acid), was developed in human lung derived epithelial cell line (CFBE4lo-) (Veit G et al, (2012) Mol Biol Cell. 23(21): 4188-4202). The development was achieved by expressing the F508delCFTR mutation along with a horseradish peroxidase (HRP) in the fourth exofacial loop, and then measuring the HRP activity using luminescence readout from these cells, CFBE4lo-F508delCFTR-HRP, that were incubated overnight with the test corrector compounds, either without or with the co-corrector. For this primary assay, the CFBE4lo-F508delCFTR-HRP cells were plated in 384-well plates (Greiner Bio-one; Cat 781080) at 4,000 cells/well along with 0.5 μg/mL doxycycline to induce the F508delCFTR-RP expression and further incubated at 37° C., 5% CO2 for 68-72 hours. The test compounds were then added either without or with a co-corrector at the required concentrations and further incubated for 18-24 hours at 33° C. The highest concentration tested was 20 μM or 30 μM (GI-1 to GIII-36) with an 8-point concentration response curve using a 3-fold dilution in both the test compound without or with the co-corrector. Three replicate plates were run to determine one EC50. All plates contained negative controls (dimethyl sulfoxide, DMSO) and positive control (2 μM or 3 μM (GI-1 to GIII-36) of 3-[(2R,4R)-4-({[1-(2,2-difluoro-1,3-benzodioxol-5-yl)cyclopropyl]carbonyl}amino)-7-methoxy-3,4-dihydro-2H-chromen-2-yl]benzoic acid) as well as on-plate concentration response of the positive control. Post incubation, the plates were washed 5× times with Dulbecco's phosphate buffered saline (DPBS), followed by the addition of the HRP substrate, luminol (50 μL), and measuring the HRP activity using luminescence readout on EnVision® Multilabel Plate Reader (Perkin Elmer; product number 2104-0010). The raw counts from the experiment were analyzed using Accelrys® Assay Explorer v3.3.
Z′ greater than 0.5 was used as passing quality control criteria for the plates. The Z′ is defined as:
1−[3*SDPositive Control+3*SDNegative Control/Absolute (MeanPositive Control−MeanNegative Control)]
The % activity measured at each of the 8 test concentrations of the test compound added either without or with a co-corrector (2 μM or 3 μM (GI-1 to GIII-36) of 3-[(2R,4R)-4-({[1-(2,2-difluoro-1,3-benzodioxol-5-yl)cyclopropyl]carbonyl}amino)-7-methoxy-3,4-dihydro-2H-chromen-2-yl]benzoic acid) was normalized to the on-plate positive control using the following formulae:
% activity (Test compound without co-corrector)=[(test compound without co-corrector response−DMSO response)/(positive control response−DMSO response)]*100
% activity (Test compound with co-corrector)=[(test compound with co-corrector response−DMSO response)/(positive control response−DMSO response)]*100
The maximum % activity achieved for the test compound either without or with a co-corrector at any tested concentration is presented in Table 3 along with the respective EC50's calculated using the following general sigmoidal curve with variable Hill slope equation (described as Model 42 in the Accelrys® Assay Explorer v3.3 software):
General sigmoidal curve with concentration, response, top, bottom, EC50 and Hill slope. This model describes a sigmoidal curve with an adjustable baseline, a. The equation can be used to fit curves where response is either increasing or decreasing with respect to the independent variable, “x”.

[3] = with co-corrector (2 μM), read-out: EC50 (with co-corrector)
[4] = without co-corrector, read-out: EC50 (without co-corrector)

T1 sequence (P13569 with tags, fused parts or gaps DEL508-508): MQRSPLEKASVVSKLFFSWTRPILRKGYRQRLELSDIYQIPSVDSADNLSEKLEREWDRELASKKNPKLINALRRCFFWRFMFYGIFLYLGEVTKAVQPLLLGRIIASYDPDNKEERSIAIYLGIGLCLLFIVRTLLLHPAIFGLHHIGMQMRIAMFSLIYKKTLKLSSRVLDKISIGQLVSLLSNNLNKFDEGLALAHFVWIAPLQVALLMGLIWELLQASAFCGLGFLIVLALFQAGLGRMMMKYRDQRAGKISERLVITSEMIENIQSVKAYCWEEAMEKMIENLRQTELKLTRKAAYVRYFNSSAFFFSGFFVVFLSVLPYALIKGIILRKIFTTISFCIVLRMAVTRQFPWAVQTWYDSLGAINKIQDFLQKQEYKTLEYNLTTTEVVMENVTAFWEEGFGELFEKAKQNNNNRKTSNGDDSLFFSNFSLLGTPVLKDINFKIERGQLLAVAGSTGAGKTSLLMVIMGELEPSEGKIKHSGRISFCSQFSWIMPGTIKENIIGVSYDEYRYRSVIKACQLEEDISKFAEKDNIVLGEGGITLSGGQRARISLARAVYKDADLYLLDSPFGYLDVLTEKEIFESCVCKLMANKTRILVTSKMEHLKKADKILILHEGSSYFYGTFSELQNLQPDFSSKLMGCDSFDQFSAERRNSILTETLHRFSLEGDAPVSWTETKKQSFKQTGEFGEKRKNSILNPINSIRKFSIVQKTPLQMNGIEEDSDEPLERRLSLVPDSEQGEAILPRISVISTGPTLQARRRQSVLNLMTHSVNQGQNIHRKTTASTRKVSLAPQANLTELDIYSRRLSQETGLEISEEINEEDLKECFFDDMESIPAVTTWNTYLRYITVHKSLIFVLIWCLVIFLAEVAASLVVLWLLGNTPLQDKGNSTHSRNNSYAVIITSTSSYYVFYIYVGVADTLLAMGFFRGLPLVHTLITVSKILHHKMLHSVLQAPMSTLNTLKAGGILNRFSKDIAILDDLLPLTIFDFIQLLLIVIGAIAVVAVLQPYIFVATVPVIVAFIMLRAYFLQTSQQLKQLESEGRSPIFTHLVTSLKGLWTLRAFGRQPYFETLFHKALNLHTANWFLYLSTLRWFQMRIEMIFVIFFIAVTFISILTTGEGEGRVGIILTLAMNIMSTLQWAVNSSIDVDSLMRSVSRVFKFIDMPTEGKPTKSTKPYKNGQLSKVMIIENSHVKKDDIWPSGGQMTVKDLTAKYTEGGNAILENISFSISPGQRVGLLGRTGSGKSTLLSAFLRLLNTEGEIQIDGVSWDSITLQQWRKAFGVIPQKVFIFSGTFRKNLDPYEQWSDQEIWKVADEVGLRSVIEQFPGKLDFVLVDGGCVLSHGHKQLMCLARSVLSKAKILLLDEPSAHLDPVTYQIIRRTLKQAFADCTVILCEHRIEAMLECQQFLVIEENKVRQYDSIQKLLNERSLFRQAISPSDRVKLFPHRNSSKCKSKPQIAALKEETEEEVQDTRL
T2 sequence (P13569 with tags, fused parts or gaps DEL508-508): as above

| Structure (SMILES) | Emax (% Dual) [1] [% Dual] | EC50 [1] [nM] | EC50 [2, 3] [nM] | Maximum % activity (with co-corrector) ([2]; with co-corrector (2 μM)) [%] | EC50 [2, 4] [nM] | Maximum % activity (without co-corrector) ([2]; without co-corrector) [%] |
| --- | --- | --- | --- | --- | --- | --- |
| COc1ncc([C@@H]2C[C@]2(C(=O)NS(=O)(=O)c2cccc3nc(C)ccc23)c2cc(C)ccc2OC)cn1 (single isomer, unassigned) [Example 37] | 152 | 42 | 3680 | 460 | 7260 | 113 |
| COc1ccc(C)cc1[C@@]1(C(=O)NS(=O)(=O)c2cccc3nc(C)ccc23)C[C@H]1c1ccc(C(C)C)nc1OC (racemic) [Example 78, rac-(1r,2s)-1-(2-methoxy-5-methylphenyl)-2-[2-methoxy-6-(propan-2-yl)pyridin-3-yl]-N-(2-methylquinoline-5-sulfonyl)cyclopropane-1-carboxamide] | 282 | 30.3 | 364 | – | 825 | 825 |
| COc1ccc(C)cc1[C@]1(C(=O)NS(=O)(=O)c2cccc3nc(C)ccc23)C[C@@H]1c1cc(F)cnc1OC [Example 84, (1S,2R)-2-(5-fluoro-2-methoxypyridin-3-yl)-1-(2-methoxy-5-methylphenyl)-N-(2-methylquinoline-5-sulfonyl)cyclopropane-1-carboxamide] | 215 | 17.5 | 945 | – | 1360 | – |
| COc1ccc([C@@H]2C[C@]2(C(=O)NS(=O)(=O)c2cccc3nc(C)ccc23)c2cc(C)ccc2OC)cc1 (racemic) [Example 9, rac-(1r,2s)-1-(2-methoxy-5-methylphenyl)-2-(4-methoxyphenyl)-N-(2-methylquinoline-5-sulfonyl)cyclopropane-1-carboxamide] | 381 | 1.1 | – | – | 1670 | – |
| COc1ccc(C)cc1[C@]1(C(=O)NS(=O)(=O)c2cccc3nc(C)ccc23)C[C@@H]1c1cnc(OC)c(OC)c1 [Example 104, (1S,2R)-2-(5,6-dimethoxypyridin-3-yl)-1-(2-methoxy-5-methylphenyl)-N-(2-methylquinoline-5-sulfonyl)cyclopropane-1-carboxamide] | 350 | 3.8 | – | – | – | – |
| CCOc1cccc([C@@H]2C[C@]2(C(=O)NS(=O)(=O)c2cccc3nc(C)ccc23)c2cc(C)ccc2OC)n1 [Example 56, (1R,2R)-2-(6-ethoxypyridin-2-yl)-1-(2-methoxy-5-methylphenyl)-N-(2-methylquinoline-5-sulfonyl)cyclopropane-1-carboxamide] | 290 | 8.5 | 386 | 917 | 890 | 370 |
| COc1ccc(C)cc1[C@]1(C(=O)NS(=O)(=O)c2cccc3nc(C)ccc23)C[C@@H]1c1cccc(C(F)(F)F)c1 (single isomer, unassigned) [Example 23] | 294 | 6.2 | 259 | – | 327 | – |
| COc1ccc(C)cc1[C@]1(C(=O)NS(=O)(=O)c2cccc3nc(C)ccc23)C[C@@H]1c1cnc(OC)c(C)n1 [Example 83, (1S,2S)-1-(2-methoxy-5-methylphenyl)-2-(5-methoxy-6-methylpyrazin-2-yl)-N-(2-methylquinoline-5-sulfonyl)cyclopropane-1-carboxamide] | 246 | 33.2 | – | – | – | – |
| COc1ccc(C)cc1[C@@]1(C(=O)NS(=O)(=O)c2cccc3nc(C)ccc23)CC1c1ccc(C)nc1 (stereo in doubt) [Example 10, (1R,2S)-1-(2-methoxy-5-methylphenyl)-2-(6-methylpyridin-3-yl)-N-(2-methylquinoline-5-sulfonyl)cyclopropane-1-carboxamide] | 194 | 804 | – | – | – | – |
| COc1ccc(C)cc1[C@]1(C(=O)NS(=O)(=O)c2cccc3nc(C)ccc23)C[C@@H]1c1cnc(C(C)C)cn1 (single isomer, unassigned) [Example 64] | 342 | 33.7 | – | – | – | – |
| COc1ccc([C@H]2C[C@@]2(C(=O)NS(=O)(=O)c2cccc3nc(C)ccc23)c2cc(C)ccc2OC)c(OC)n1 (single isomer, unassigned) [Example 94] | 246 | 7 | – | – | – | – |
| CCOc1cnc([C@H]2C[C@@]2(C(=O)NS(=O)(=O)c2cccc3nc(C)ccc23)c2cc(C)ccc2OC)cn1 (single isomer, unassigned) [Example 66] | 253 | 15.2 | – | – | – | – |
| CCOc1ncccc1[C@H]1C[C@@]1(C(=O)NS(=O)(=O)c1cccc2nc(C)ccc12)c1cc(C)ccc1OC (single isomer, unassigned) [Example 71] | 288 | 11.3 | – | – | – | – |
